Assay results published in patent US20100104625A1, “BIODEGRADABLE COMPOSITIONS AND MATERIALS” (CORNELL UNIVERSITY, priority 2007, published 2010).

Test: Sessile contact angle of water on lipid pellet surface
Format: physicochemical
Conditions: pellets fabricated from each lipid
Method: Particle characterization. Particle morphology and size were studied at low voltage (5 kV) using scanning electron microscopy imaging (LEICA 440) after coating with palladium. Surface charge measurements on samples suspended in 1:10 diluted PBS were carried out using a Malvern Zetasizer-Nano ZS (Malvern, UK). A PRECO Hydraulic press (Los Angles, Calif.) was used to make lipid pellets with approximate surface area of 25 mm^2. For contact angle measurements, a ramé-hart contact angle goniometer (100-FO) was used to measure the sessile contact angle of water on a lipid pellet surface. Unless otherwise stated, measurements were taken in triplicate.

For CCCCCCCC(=O)OCC(=O)COC(=O)CCCCCCC [C8], the “Hydrophobicity by contact angle of water on lipid surfaces” value was “least hydrophobic”.
